Test results: US11096910B2, “Metabolically robust analogs of CYP-eicosanoids for the treatment of cardiac disease” (OMEICOS THERAPEUTICS GMBH, priority 2015, dated 2021)

Columns and labels:
[1] = target: T1, human soluble expoxide hydrolase (sEH) (Homo sapiens, UniProt P34913); test: In vitro inhibition of recombinant human soluble epoxide hydrolase; format: biochemical; details: 10 μM compound, 50 μM 14,15-EET substrate, vs vehicle control
T1 construct: purchased Cayman Chemicals
T1 sequence (P34913 1-555): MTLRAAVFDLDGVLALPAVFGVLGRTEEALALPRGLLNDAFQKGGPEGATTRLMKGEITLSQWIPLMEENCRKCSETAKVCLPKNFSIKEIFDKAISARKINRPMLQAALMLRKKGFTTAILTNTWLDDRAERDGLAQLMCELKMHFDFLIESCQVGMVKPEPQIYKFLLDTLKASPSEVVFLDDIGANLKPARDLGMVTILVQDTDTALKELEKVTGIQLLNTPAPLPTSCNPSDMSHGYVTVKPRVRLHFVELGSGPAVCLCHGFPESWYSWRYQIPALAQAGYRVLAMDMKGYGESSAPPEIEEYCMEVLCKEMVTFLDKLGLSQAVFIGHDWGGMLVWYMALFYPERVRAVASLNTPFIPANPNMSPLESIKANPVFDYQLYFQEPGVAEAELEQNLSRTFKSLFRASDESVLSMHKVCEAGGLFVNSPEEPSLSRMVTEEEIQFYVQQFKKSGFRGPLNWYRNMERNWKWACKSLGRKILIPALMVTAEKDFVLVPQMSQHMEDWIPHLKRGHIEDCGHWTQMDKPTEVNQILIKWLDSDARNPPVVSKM
Procedure: A selection of compounds was tested for the ability to inhibit human soluble expoxide hydrolase (sEH). […] Briefly, the assay was performed at 37° C. for 20 min in a final volume of 100 μL potassium phosphate buffer (0.1 M, pH 7.2) containing 50 μM 14,15-EET as substrate. The reactions were started by adding enzyme (107.5 ng per reaction, 12.06 U/ml activity, Cayman Chemicals) and terminated with 300 μl ethyl acetate. […] Metabolically robust analogs shown in FIG. 5 were tested at final concentration of 10 μM for potency of sEH-inhibition compared to vehicle control (1% DMSO), n=2-4.

[2] = system: spontaneously beating neonatal rat cardiomyocytes (NRCMs); test: Spontaneous beating rate of neonatal rat cardiomyocytes (anti-arrhythmic cell model); format: cell-based; details: 20 nM or 30 nM; comparison between analogs
Procedure: The compounds include analogues being part of the invention (Comp-01 to Comp-05), which were synthesized as described in example 1, and additional related compounds (Comp-06 to Comp-13). A 1000-fold stock solutions in ethanol of the test compounds was prepared before use.
In order to measure the biological activities of metabolically robust analogs of CYP-eicosanoids an established cell model was used (Kang, J. X. et al., Proc Natl Acad Sci USA, 1994. 91(21): p. 9886-90). The spontaneously beating neonatal rat cardiomyocytes (NRCMs) are a model system to investigate anti-arrhythmic effects of test-compounds. […]
Isolation and cultivation of NRCMs were performed as described previously (Wallukat, G et al., J Clin Invest. 1999; 103: 945-952; Falck, J R et al., J Med Chem. 2011 Jun. 23; 54(12):4109-18). […] After four hours of incubation cells were adopted for 10 min to 31° C. and beating was recorded using an inverted microscope (Leica DM IRB) equipped with a CCD camera and coupled to an IonOptix (software: IonWizard6, IonOptix). To determine the basal rate, 6 to 8 individual clusters were selected and the number of contractions was counted for 15 sec. After that, the compound to be tested was added to the culture and the beating rate of the same clusters was monitored 5 min later again. […]

male B16 mice = test: Atrial fibrillation induced by programmed electrical stimulation in a mouse model of moderate cardiac hypertrophy; format: in vivo
Procedure: Study design: To gain insight into in-vivo effect of synthetic 17,18-EEQ-agonists, atrial fibrillation studies were performed in male B16 mice as described in Westphal, C. et al., PLoS ONE. 2013, 8(8): e73490. Briefly, moderate cardiac hypertrophy was induced by continuous infusion of isoproterenol via subcutaneously implanted osmotic minipumps (Alzet) at a rate of 40 mg/kg/d for two weeks. After two weeks of treatment, ECG and electrophysiological data were recorded. Programmed electrical stimulation (PES) was performed in the right atrium or right ventricle using a digital electrophysiology lab (EP Tracer; CardioTek) to determine refractory periods and arrhythmia inducibility. Atrial arrhythmias were defined as fast (>800 bpm) electrical activity in the right atrial electrograms, with ECG P waves different to normal sinus rhythm and subsequent fast, but physiological activation of the ventricles (ECG R wave and right ventricular electrograms similar to normal sinus rhythm). Atrial fibrillation was defined as fast, irregular activity in the right atrial electrograms with irregular conduction to the ventricles (high variability of R—R intervals). Ventricular arrhythmias were defined by fast (>800 bpm) activity originating from the ventricular myocardium (change in morphology of ECG R waves and local right ventricular electrograms compared to normal sinus rhythm). During inhalation anesthesia with isoflurane (2% with 360 ml/min air flow; Univentor 400 anesthesia unit), the animals' body temperature was kept constant at 37° C. using a homeothermic blanket control unit (Hugo Sachs Elektronik, Harvard Apparatus) with rectal temperature control. After preparation of the right jugular vein, a 2 French octapolar electrophysiology catheter (CIB'ER mouse cath; NuMed) was placed in the right heart, including atrium and ventricle. PES was performed using a standardized protocol that included trains of 10 basal stimuli (S1) followed by up to 3 extra stimuli (S2-S4), delivered with a coupling interval decreasing in steps of 5 ms until ventricular or atrial refractoriness was reached. The stimulation procedures were repeated at three different basal cycle lengths (100 ms, 90 ms, 80 ms) with each animal. Occurrence and duration of inducible arrhythmias were documented. Only stimulation protocols with reproducible arrhythmias longer than five consecutive beats in ventricle and episodes longer than 350 ms in the atria were considered positive. “Arrhythmia inducibility” was calculated as the percentage of effective (positive) out of total protocols applied. Accordingly, the arrhythmia inducibility of individual animals could take a value of 0, 33, 66 or 100%. […]

[3] = single i.v. injection 2 mg/kg, vs vehicle

`CNC(=O)C(=O)NCCCC/C=C\CCCCCCCOCC(=O)O` [Comp-02, 2-((13-(2-(methylamino)-2-oxoacetamido)tridec-8(Z)-en-1-yl)oxy)acetic acid] was tested, and the “inhibition of human sEH” value [1] was “did not show sEH-inhibition”, the “negative chronotropic effect on NRCMs, in words” value [2] was “equal potency” and the “obvious negative side effects” value (male B16 mice; single i.v. bolus injection, 2 mg/kg body weight) was “did not induce any obvious negative side effects”. For the same molecule, the “reduction of the inducibility of sustained arrhythmia episodes” value (male B16 mice; [3]) was 62%, the “severity of induced atrial fibrillation episodes” value (male B16 mice; [3]) was “significantly reduced” and the “sum of totally induced atrial fibrillation episodes (atrial fibrillation burden)” value (male B16 mice; [3]) was “reduced significantly”.
